Source: patent US20150080462A1, “COMPOSITIONS AND METHODS FOR THE TREATMENT OR PREVENTION OF DISORDERS RELATING TO OXIDATIVE STRESS” (THE JOHNS HOPKINS UNIVERSITY, priority 2005, published 2015)
Entries after “also recorded” stand apart in the source; their conditions may differ. *1 amine or outer side, *2 acyl side, *3 side chain or, on linkers, in order; H or OH if unused. Where a SMILES comes first, the peptide text is derived from it. Bridges are numbered along the chain shown (N, C = ends). Roman numbers before positions name the chains, in order. [ ]: non-standard residue; d: D form. Actinocin(9to1) = Cc1c2oc3c(C)ccc(C(=O)[*:1])c3nc-2c(C(=O)[*:2])c(N)c1=O; NMeV = CN[C@H](C(=O)O)C(C)C; Sar = CNCC(=O)O

What was measured:
HO-1 = HO-1 protein expression in cortical neurons (Western blot); conditions: cortical neurons pretreated 1 h with CHX or ATD, then 100 μg/ml EGb 761
[1] = system: mouse cortical neuronal cells; assay: Glutamate-induced cytotoxicity in primary neurons (MTT); assay type: cell-based; conditions: SnPPIX 5 μM; CHX 10 μM
Experimental: Mouse primary neurons cultured for 14 d were pre-treated for 6 h with EGb 761 (100 μg/ml). […] Neurons were incubated for an additional 18 h, and the MTT assay was used to estimate the cell survival. Experimental conditions were conducted in quadruplicate and repeated four times with different batches of primary cultures.
(§1) Neuronal survival was assessed and quantified with the MTT colorimetric assay. […] The optical density was determined at 570 nm. Cell viability of the vehicle-treated control group was defined as 100%, and MTT optical density in the treated groups was expressed as a percent of control.

NF-κB = assay type: cell-based, mouse; conditions: nrf2−/− MEFs pretreated 1 h with NAC (10 mM) or GSH-MEE (1 mM), then LPS (0.5 μg/ml) or TNF-α (10 ng/ml) 3 h
Experimental: MEFs (60-80% confluence) were transfected with luciferase reporter genes (pNF-κB-luc or ISRE-Tk-Luc vector) by using Lipofectamine2000 (Invitrogen). The Renilla-luciferase reporter gene (pRL-TK) was co-transfected for normalization. After the treatments, the reporter gene activity was measured using the Dual Luciferase Assay System (Promega). All transfection experiments were carried out in triplicate wells and were repeated separately at least 3 times.

nrf2−/− and nrf2+/+ mice = assay: LPS induced septic shock mortality, NAC pretreatment; assay type: in vivo; conditions: LPS 1.5 mg per mouse
[2] = system: OVA challenged Nrf2−/− mice; assay: Lung histology (H&E) of OVA challenged mice pretreated with NAC; conditions: OVA challenged (1st challenge) Nrf2−/− mice, NAC 7 days before challenge
Experimental: Mice (male, 8 weeks old) were sensitized on day 0 by i.p. injection (100 μl/mouse) with 20 μg of ovalbumin complexed with aluminum potassium sulfate. On day 14, mice were sensitized a second time with 100 μg OVA. On days 24, 26 and 28, the mice were anesthetized by i.p. injection of 0.1 ml of a mixture of ketamine (10 mg/ml) and xylazine (1 mg/ml) diluted in sterile PBS and challenged with 200 μg of OVA (in 100 μl sterile PBS) by intratracheal instillation. The control groups received sterile PBS with aluminum potassium sulfate by i.p. route on day 0 and 14, and 0.1 ml of sterile PBS on day 24, 26 and 28. […]
The lungs were inflated with 0.6 ml of buffered formalin (10%), fixed for 24 h at 4° C., prior to histochemical processing. […] The number of PAS positive cells was counted on longitudinal lung sections of the proximal airways. The percent PAS positive cells was determined by counting the mucus positive cells and unstained epithelial cells in the proximal airways under the microscope with a grid at 100× magnification. […] The data are expressed as mean±SEM.
Nrf2^+/+ and Nrf2^−/− mice (6 mice in each group) were sensitized with OVA by following the procedure as already described. […] Twenty-four hours after challenge, BAL fluids and lung tissues were harvested and analyzed as above. […]

[3] = system: OVA challenged Nrf2−/− mice; assay: BAL fluid inflammatory cell counts in OVA challenged mice pretreated with NAC
Experimental: Mice (n=8) were anesthetized with 0.3 ml of pentobarbital (65 mg/ml) and the trachea was cannulated. […] BAL fluid was collected with 1 ml followed by 2×1 ml of sterile PBS containing 5 mM EDTA, DTT (5 mM) and PMSF (5 mM). The BAL fluid was immediately centrifuged at 1500×g. The total cell count was measured, and cytospin preparation (Shandon Scientific Inc., Cheshire, UK) was performed. Cells were stained with Diff-Quick reagent, and a differential count of 300 cells was performed using standard morphological criteria (Saltini C et al. Am Rev Respir Dis 130:650-658.1984).
Mice (male, 8 weeks old) were sensitized on day 0 by i.p. injection (100 μl/mouse) with 20 μg of ovalbumin complexed with aluminum potassium sulfate. On day 14, mice were sensitized a second time with 100 μg OVA. On days 24, 26 and 28, the mice were anesthetized by i.p. injection of 0.1 ml of a mixture of ketamine (10 mg/ml) and xylazine (1 mg/ml) diluted in sterile PBS and challenged with 200 μg of OVA (in 100 μl sterile PBS) by intratracheal instillation. The control groups received sterile PBS with aluminum potassium sulfate by i.p. route on day 0 and 14, and 0.1 ml of sterile PBS on day 24, 26 and 28. Mice were euthanized at different time points after OVA challenge for BAL, RNA isolation, histopathology, and for AHR measurements.
Nrf2^+/+ and Nrf2^−/− mice (6 mice in each group) were sensitized with OVA by following the procedure as already described. […] Twenty-four hours after challenge, BAL fluids and lung tissues were harvested and analyzed as above. The experiment was repeated two times.

caspase-3 = assay: Caspase-3/7 assay in cortical neurons; assay type: cell-based, mouse; conditions: for caspase-3 activity: cortical neurons, t-BuOOH 60 μM, NMDA 100 μM, glutamate 300 μM
Nrf2 = conditions: cortical neurons; t-BuOOH 60 μM, NMDA 100 μM, glutamate 300 μM; up to 360 minutes
primary cortical neurons [4] = assay: Neuronal viability by MTT assay (t-BuOOH, NMDA, glutamate with or without t-BHQ); conditions: 24 hours
[5] = system: mouse cortical neuronal cells; assay: H2O2-induced cytotoxicity in primary neurons (MTT); assay type: cell-based; conditions: SnPPIX 5 μM
Experimental: After 10 d in culture, mouse primary neurons were pre-treated with EGb 761 (10, 50, or 100 μg/ml) for 6 h, and then treated for 18 h with H2O2 (20 μM) or vehicle (control) with or without 5 μM HO inhibitor (SnPPIX, Porphyrin Products, Inc., (Logan, Utah). Cell survival was evaluated by the 3-(4,5-dimethylthiazol-2-yl)-2,5-diphenyl tetrazolium bromide (MTT) colorimetric assay.
as §1

HO-2 = HO-2 protein expression in cortical neurons (Western blot); conditions: 8 h
[6] = system: NADPH-cytochrome P450 reductase (CP450R); assay: NADPH-cytochrome P450 reductase protein expression in cortical neurons (Western blot); conditions: 8 h
primary cortical neurons [7] = system: primary cortical neurons

For `Cc1c2oc3c(C)ccc(C(=O)N[C@@H]4C(=O)N[C@H](C(C)C)C(=O)N5CCC[C@H]5C(=O)N(C)CC(=O)N(C)[C@@H](C(C)C)C(=O)O[C@@H]4C)c3nc-2c(C(=O)N[C@@H]2C(=O)N[C@H](C(C)C)C(=O)N3CCC[C@H]3C(=O)N(C)CC(=O)N(C)[C@@H](C(C)C)C(=O)O[C@@H]2C)c(N)c1=O` [ATD, actinomycin D] (I: T[dV]P[Sar][NMeV] / II: T[dV]P[Sar][NMeV]; ester I:1-I:C, II:1-II:C; linker I:N-II:N via Actinocin(9to1)), the “HO-1 induction by EGb 761 in presence of inhibitor” value (HO-1) was “completely block”.

With `C[C@@H]1C[C@@H]([C@H](O)CC2CC(=O)NC(=O)C2)C(=O)[C@@H](C)C1` [CHX, cycloheximide] the “protective effect of EGb 761 against glutamate in presence of inhibitor” value [1] was “prevented the protective effect” and the “HO-1 induction by EGb 761 in presence of inhibitor” value (HO-1) was “completely block”.

In the case of `CCOC(=O)CNC(=O)[C@H](CS)NC(=O)CC[C@H](N)C(=O)O` [GSH-monoethyl ester], the “NF-κB mediated reporter activity elicited by LPS or TNF-α” value (NF-κB) was “significantly attenuated”.

For `CC(=O)N[C@@H](CS)C(=O)O` [NAC, N-acetyl L-cysteine], the “LPS induced mortality (% survival) vs vehicle-pretreated mice” value (nrf2−/− and nrf2+/+ mice; nrf2−/− and nrf2+/+ mice, NAC ip 500 mg/kg daily 4 days, 5 days) was “improved survival”, the “mice surviving LPS induced septic shock” value (nrf2−/− and nrf2+/+ mice; nrf2−/− mice, NAC 500 mg/kg ip daily 4 days, saline-pretreated all died within 56 h) was 40% and the “protection against LPS induced septic shock” value (nrf2−/− and nrf2+/+ mice; wild-type mice, NAC 500 mg/kg 4 days) was “modest protection”. The “infiltration of inflammatory cells in the peribronchial and perivascular region” value [2] was “marked reduction; also recorded: significant reduction”, the “other cell types (macrophages, neutrophils, lymphocytes, epithelial cells) in BAL fluid” value ([3]; 24 h post 1st OVA challenge, NAC treatment) was “did not have any significant inhibitory effect” and the “inflammatory cells in the BAL fluid” value ([3]; Nrf2−/− OVA mice, NAC pretreatment 7 days before 1st OVA challenge) was “significantly (*) reduced”. The “total and differential cell counts in saline-challenged mice” value ([3]; saline-challenged mice treated with NAC vs untreated) was “did not differ”.

In the case of `CN[C@H](CC(=O)O)C(=O)O` [NMDA], the caspase-3 activity (caspase-3) was “induced an increase”, the “Nrf2 in the cytosolic fraction” value (Nrf2) was “no effect” and the “Nrf2 in the nuclear fraction” value (Nrf2) was “no effect”. For the same molecule, the “number of viable neurons vs untreated control” value (primary cortical neurons [4]; t-BuOOH 60 μM, NMDA 100 μM, glutamate 300 μM) was “significantly decreased”.

With `C=Cc1c2[n-]c(c1C)/C=c1\[n-]/c(c(C)c1C=C)=C\c1[n-]c(c(CCC(=O)O)c1C)C=c1[n-]/c(c(C)c1CCC(=O)O)=C\2.[Sn+4]` [SnPPIX, Tin Protoporphyrin IX] the “protective effect of EGb 761 against H2O2 in presence of HO inhibitor” value [5] was “blocked the protective effect” and the “protective effect of EGb 761 against glutamate in presence of inhibitor” value [1] was “prevented the protective effect”.

For `CC(C)(C)[C@]1(O)CC2OC(=O)CC23C(=O)OC2OC(=O)[C@H](O)C231` (some centres unmarked) [bilobalide], the HO-2 expression level (HO-2) was “do not affect” and the “NADPH-cytochrome P450 reductase (CP450R) protein expression” value [6] was “do not affect”.

In the case of `N[C@@H](CCC(=O)O)C(=O)O` [glutamate], the caspase-3 activity (caspase-3) was “induced an increase”, the “Nrf2 in the cytosolic fraction” value (Nrf2) was “no effect” and the “Nrf2 in the nuclear fraction” value (Nrf2) was “no effect”.

With `CC(C)(C)c1cc(O)ccc1O` [t-BHQ, tert-butylhydroquinone] the “increase in caspase-3 activity evoked by t-BuOOH, NMDA and glutamate” value (caspase-3; t-BHQ 20 μM) was “prevent the increase”, the “basal levels of caspase-3 activity” value (caspase-3; t-BHQ alone) was “no effect” and the “neuronal viability, compound alone” value (primary cortical neurons [7]) was “no effect”. For the same molecule, the “decrease in viable neurons caused by t-BuOOH, NMDA or glutamate” value (primary cortical neurons [4]; t-BHQ 20 μM) was “abolished”.

`CC(C)(C)OO` [t-BuOOH, test-butyl hydroperoxide] was tested, and the caspase-3 activity (caspase-3) was “induced an increase”, the “Nrf2 in the cytosolic fraction” value (Nrf2) was “decreased to below the basal level after 30 minutes” and the “Nrf2 in the nuclear fraction” value (Nrf2) was “elevated at 30 min”.
